How the values were obtained:
[1] = system: MGC-803 (human gastric cancer cells); assay: Antiproliferative activity (SRB / CCK-8 assay); assay type: cell-based; details: mean ± SD
Description: MCF-7, MGC-803, Hela and HepG-2 cell lines were cultured in a base medium (90% DMEM and 10% FBS), A549 and U937 were cultured in a base medium (90% PRMI-1640 and 10% FBS) at 37 °C, 5% CO2 and a saturated humidity atmosphere. All the mediums were supplemented with 10% FBS and 1% […]/streptomycin (all cells were purchased from Shanghai Institutes for Biological Sciences, Chinese Academy of Sciences, Shanghai, China).
A549, MGC-803, MCF-7, HepG2 and Hela cells were seeded at the appropriate cell line density (3 × 10^3 to 4 × 10^3 cells/well). The cells were then incubated at 37 °C for 24 h in a humidified 5%CO2 in 96-well plates prior to experiments. After a further 72 h of incubation, cell proliferation was quantified with SRB ([…]) to determine the number of surviving cells. The absorbance at 560 nm was measured by microplate. The experiment was repeated three times, and the data were listed in the form of mean and standard deviation.
MGC-803 cells were collected and seeded into 96 well plates at a density of 8000/well. The mediums containing drugs and cell suspension were added into the well. The cells were incubated in 5% CO2 incubator at 37 °C for 72 h. Each well was added 10 µL CCK8 solution, and the incubation time was 3–4 h. The absorbance value at 450 nm was measured by microplate reader. Data are calculated with GraphPad Prism5 software.

[2] = system: microtubule network of MGC-803 cells; assay: Immunofluorescent staining of the cellular microtubule network; assay type: cell-based, human; details: 18, 36, and 72 nM
Description: Since tubulin-microtubule system plays a crucial role in mechanical solidity, cell motility and mitosis, an immunofluorescent staining assay was further carried out in MGC-803 cells to evaluate the inhibitory effects of 4c on microtubule cytoskeleton. […] Upon treatment with higher concentrations of 4c, the dispersed tubulin dimers were even more obvious and there is no tubular structure left.
MGC-803 cells (3 × 10^4 cells/well) were seeded into 6 well-plates and then treated with vehicle control 0.1% DMSO and 4c (18, 36, 72nΜ). The cells were rinsed twice with PBS and fixed by 4% paraformaldehyde for 20 min. Subsequently, microtubule detection was performed using a fluorescent antibody against α-tubulin in 5% BSA and incubated for 5 ∼ 6 h at room temperature. To stain cell nucleus, crystals were incubated with Hoechst for 10 min. After washing with PBST to remove redundant stain, the samples were visualised under an Olympus laser scanning confocal microscope.

HUVECs = assay: Tube formation assay on Matrigel; assay type: cell-based, human; details: 2.5 µM
Description: The formation of HUVEC tube represents the key steps in angiogenesis. Thus, we further tested the anti-vascular activity of 4c by performing a tube formation assay. As shown in Figure 10 HUVECs in the control group formed integrated tubules with multicentric junctions on the Matrigel matrix, while the tubes were fragmentary after exposure to 4c.
The matrix gel was thawed overnight at 4 °C and then added to 96 well plates. After incubated at 37 °C for 45 min, the matrix gel was solidified. Different concentrations of 4c were added to each well at the density of HUVECs was 1 × 10^5/well. After incubated at 37 °C for 6–8 h, the formation of tubules was observed under microscope

[3] = system: Caspase -3/-7/-9 and PARP in MGC-803 cells; assay: Western blot of apoptosis-related proteins; assay type: cell-based, human; details: 18, 36 and 72 nM, 48 h
Description: The Caspase family proteins are considered to be critical regulators of cell apoptosis, in which Caspase-3 is one of the most important "executioner" of apoptosis induction, capable of cleaving many important cellular matrices and represent the hallmark of apoptosis. To explore the apoptosis-associated protein alterations, the expression of Caspase -3/-7/-9 and PARP was analysed.
The protein levels in MGC-803 cells were assessed via western blot analysis. Exponentially growing MGC-803 cells were seeded at a density of 6 × 10^5/dishes and incubated overnight. Then 18, 36, 72nΜ of 4c were added in triplicate for 48 h incubation. After the cells were washed with cold PBS, the supernatant was removed. The supernatant was collected by centrifuging at 12,000 g for 10 min at 4 °C. The protein concentration in the supernatant was determined by using a BSA protein assay kit. Samples were prepared in SDS-PAGE loading buffer after BSA analysis to quantify proteins, then boiled for 10 min at 100 °C. Western blot analyses were conducted after separation by SDS-PAGE electrophoresis and transfer to nitrocellulose filter (NC) membranes. Immunoblotting was performed according to the antibody manufacturers’ recommendations.

MGC-803 cells = assay: Wound healing migration assay; assay type: cell-based, human; details: 72 nM, after 48 h, control approximately 64%
Description: Metastasis is one of the leading causes of morbidity and mortality of cancer patients. Microtubules-targeting inhibitors have also been reported to interfere with cell migration and invasion. Accordingly, the in vitro would healing assay and Transwell assays were performed to investigate the inhibitory effect of compound 4c on the migration and invasion of MGC-803 cells. As shown Figure 8(A,C), the scratches healing rate in the control group was approximately 64%. By contrast, the cells treated with 4c have much smaller scratched areas recovery at all concentrations. […] Cell invasion is an important malignant behaviour during cancer metastasis. In Tanswell assay, MGC-803 cells were seeded into upper chambers with pre-coated Matrigel stimulating base membrane in order to assess the cellular invasion.
MGC-803 cells and HUVECs were seeded in 24-well plates and cultivated for 24 h at 37 °C. The cells were scribed vertically with a gun tip and washed with PBS to remove dead cells. The containing different concentrations of 4c were added to the scratched monolayers. The migrated cells were photographed under a light microscope at indicated time points from the scratch. Take a picture and use the image J software to calculate the area of the cell scratches.

[4] = system: HUVECs (human umbilical vein endothelial cells); assay: Transwell cell invasion assay; assay type: cell-based; details: 2.5, 5 and 10 µM, 24 h
Description: HUVECs (human umbilical vein endothelial cells) grown on Matrigel were commonly used as a tube formation model for studying the physiological and pathological processes of the vascular system in vitro, and a widely studied human endothelial cell type in angiogenesis. The effect of 4c on endothelial cell migration was assessed by using HUVECs. Standardised wounds were made in confluent monolayers of HUVECs and then exposed to compound 4c at 2.5, 5 and 10 µM for 48 h. […] We further evaluated the capacity of 4 s on endothelial cell invasion using a Transwell assay.
Matrix gel was thawed overnight at 4 °C. […] Then the cells were washed three times with PBS and fixed cells by 4% paraformaldehyde for 30 min. Subsequently, 0.2% crystal violet solution was added, stained for 30 min, and the invasion of cells was observed under the microscope. Transwell was placed into a 24-well plate, 35% acetic acid (300 μL) was added to the upper chamber of the chamber, and after acetic acid completely entered the lower chamber, 100 μL of acetic acid from the lower chamber was aspirated into a 96-well plate, and three replicate wells of each concentration were shaken for 10 min, and the absorbance was measured at 560 nm with an enzyme marker.

COc1cc(C(=O)/C(F)=C/c2c[nH]c3cc(Br)ccc23)cc(OC)c1OC [4c, (Z)-3–(6-bromo-1H-indol-3-yl)-2-fluoro-1–(3,4,5-trimethoxyphenyl)prop-2-en-1-one]
IC50 ([1]; Table 2, triplicate): 57 ± 6 nM | IC50 ([1]; three separated experiments, 72 h): 57.1 ± 6 nM | Effect on cellular microtubule network [2]: remarkable disruption of microtubule reticular network | HUVEC cord formation, tube area and length (HUVECs): dramatically suppressed | cleaved Caspase-3/-7/-9 expression [3]: up-regulation of cleaved Caspase-3/-7/-9 | migration rates (scratch healing) (MGC-803 cells): 10% | number of cells invaded into lower chamber [4]: gradually decreased in a dose-dependent manner

— PMC8741257, “Identification of novel non-toxic and anti-angiogenic α-fluorinated chalcones as potent colchicine binding site inhibitors” (Journal of Enzyme Inhibition and Medicinal Chemistry, 2022)
